Measured values reported in ChEMBL document CHEMBL4049411, “Rational Design, Synthesis, and Biological Evaluation of Heterocyclic Quinolones Targeting the Respiratory Chain of Mycobacterium tuberculosis” (J Med Chem, 2017).
Converted amounts (≈) assume the structure as drawn.

Columns and labels:
[1] = Intrinsic clearance in human microsomes; type: ADME, Microsome; details: read-out: CLH
[2] = Lipophilicity, logD of compound at pH 7.4; details: buffer
[3] = (§1) Inhibition of replicating Mycobacterium tuberculosis H37Rv NDH assessed as cell growth inhibition after 7 days by MABA method; details: 168 h
[4] = Aqueous solubility of compound; type: physicochemical; details: buffer
[5] = Intrinsic clearance in rat hepatocytes assessed per million cells; type: ADME, cell-based, Hepatocyte; details: read-out: CLH
[6] = Protein binding in human plasma at 1 uM after 18 hrs by equilibrium dialysis; type: ADME, cell-free; details: read-out: PPB (converted)
[7] = Metabolic stability in human liver microsomes assessed as half life for metabolic turnover at 0.1 to 10 uM preincubated for 60 mins in presence of NADPH measured up to 60 mins by mass spectroscopic analysis; type: ADME, microsome
[8] = Metabolic stability in mouse liver microsomes assessed as half life for metabolic turnover at 0.1 to 10 uM preincubated for 60 mins in presence of NADPH measured up to 60 mins by mass spectroscopic analysis; type: ADME, microsome
[9] = tested on: Mycobacterium tuberculosis H37Rv; test: as §1
[10] = Metabolic stability in rat liver microsomes assessed as half life for metabolic turnover at 0.1 to 10 uM preincubated for 60 mins in presence of NADPH measured up to 60 mins by mass spectroscopic analysis; type: ADME, microsome
HepG2 = test: Cytotoxicity against human HepG2 cells after 24 hrs in presence of glucose by MTT assay; type: cell-based; details: hepg2, 24 h

SMILES: Cc1c(-c2ccc(N3CCC[C@H]3CO)cc2)[nH]c2cc(F)cc(F)c2c1=O
- microsomal CLint [1]: > 300 µL/min/mg
- logD [2]: > 3.4
- IC50 [3]: 1.59 µM
- solubility [4]: 4 µM (≈ 1.48 µg/mL)
- hepatocyte CLint [5]: 36.5 µL/min/1e6 cells
- fraction unbound at 18 h, 1 µM [6]: 0.045

SMILES: O=c1c(Cl)c(-c2ccc(N3CCC(F)CC3)cc2)[nH]c2ccccc12
- IC50 [3]: > 10 µM

SMILES: Cc1c(-c2ccc(N3CC(C)(O)C3)cc2)[nH]c2cc(F)cc(F)c2c1=O
- IC50 [3]: > 10 µM

SMILES: Cc1c(-c2ccc(N3CCCCC3)cc2)[nH]c2ccc(F)cc2c1=O
- IC50 [3]: 1.83 µM

SMILES: Cc1c(-c2ccc(-n3cc(F)c(F)c3)cc2)[nH]c2cc(F)cc(F)c2c1=O
- half-life at up to 10 µM [7]: ≥ 60 min
- half-life at up to 10 µM [8]: ≥ 60 min
- IC90 [9]: > 10 µM
- IC50 [3]: > 10 µM
- half-life at up to 10 µM [10]: ≥ 60 min

SMILES: COc1cc2[nH]c(-c3ccc(-n4cc(F)c(F)c4)cc3)c(C)c(=O)c2cc1Cl
- IC50 [3]: > 10 µM

SMILES: COc1ccc2c(=O)c(C)c(-c3ccc(N4CCC(Cc5ccccc5)CC4)cc3)[nH]c2c1
- IC50 [3]: > 10 µM

SMILES: COc1ccc2c(=O)c(C)c(-c3ccc(N4CCC(F)CC4)cc3)[nH]c2c1
- IC50 [3]: 1.32 µM

SMILES: Cc1c(-c2ccc(N3CCCCC3)cc2)[nH]c2cc(Cl)ccc2c1=O
- IC50 [3]: > 10 µM

SMILES: Cc1c(-c2ccc(N3CCC4(CC3)CC4)cc2)[nH]c2cc(F)cc(F)c2c1=O
- IC50 [3]: > 10 µM

SMILES: Cc1c(-c2ccc(N3CCC[C@@H]3C(=O)N3CCC(F)CC3)cc2)[nH]c2cc(F)cc(F)c2c1=O
- IC50 [3]: > 10 µM

SMILES: Cc1c(-c2ccc(N(C)C)cc2)[nH]c2cc(F)cc(F)c2c1=O
- IC50 [3]: 0.41 µM

SMILES: O=c1c(Br)c(-c2ccc(N3CCC(F)CC3)cc2)[nH]c2ccccc12
- IC50 [3]: > 10 µM

SMILES: Cc1c(-c2ccc(N3CCC(F)CC3)cc2)[nH]c2ccccc2c1=O
- IC50 [3]: > 10 µM

SMILES: Cc1c(-c2ccc(N3CCN(Cc4ccccc4)CC3)cc2)[nH]c2ccccc2c1=O
- IC50 [3]: 5.74 µM

SMILES: Cc1c(-c2ccc(N3CCC(C)(O)C3)cc2)[nH]c2cc(F)cc(F)c2c1=O (stereo unspecified)
- IC50 [3]: > 10 µM

SMILES: Cc1c(-c2ccc(N3CCC(F)(F)CC3)cc2)[nH]c2cc(F)cc(F)c2c1=O
- IC50 [3]: > 10 µM

SMILES: Cc1c(-c2ccc(N3CCC[C@@H]3C(=O)NC(C)(C)C)cc2)[nH]c2cc(F)cc(F)c2c1=O
- IC50 [3]: 0.96 µM

SMILES: Cc1c(-c2ccc(N3CCC[C@@H]3C(=O)N(C)C)cc2)[nH]c2cc(F)cc(F)c2c1=O
- IC50 [3]: > 10 µM

SMILES: O=c1c(Cl)c(-c2ccc(N3CCCCC3)cc2)[nH]c2ccccc12
- IC50 [3]: 1.56 µM

SMILES: Cc1c(-c2ccc(NCc3ccccc3)cc2)[nH]c2cc(F)cc(F)c2c1=O
- IC50 [3]: > 10 µM

SMILES: COc1ccc2c(=O)cc(-c3ccc(N4CCC(F)CC4)cc3)[nH]c2c1
- IC50 [3]: > 10 µM

SMILES: Cc1c(-c2ccc(N3CCCCC3)cc2)[nH]c2cc(F)ccc2c1=O
- IC50 [3]: > 10 µM

SMILES: Cc1c(-c2ccc(-n3ccc4ccccc43)cc2)[nH]c2cc(F)cc(F)c2c1=O
- IC50 [3]: > 10 µM

SMILES: COc1cc(OC)c2c(=O)c(C)c(-c3ccc(N4CCCCC4)cc3)[nH]c2c1
- IC50 [3]: > 10 µM

SMILES: Cc1c(-c2ccc(N3CCC[C@H](C)C3)cc2)[nH]c2cc(F)cc(F)c2c1=O
- half-life at up to 10 µM [7]: 8.54 min
- half-life at up to 10 µM [8]: 7.65 min
- microsomal CLint [1]: > 300 µL/min/mg
- logD [2]: > 3.2
- Activity (HepG2): 85.54 µM
- IC90 [9]: 0.66 µM
- IC50 [3]: 0.4 to 0.47 µM
- half-life at up to 10 µM [10]: 5.72 min
- solubility [4]: < 0.3 µM
- hepatocyte CLint [5]: 91.2 µL/min/1e6 cells
- fraction unbound at 18 h, 1 µM [6]: 0.007

SMILES: COc1cc2[nH]c(-c3ccc(N4CCCCC4)cc3)c(C)c(=O)c2cc1F
- microsomal CLint [1]: > 300 µL/min/mg
- logD [2]: 3.9
- IC50 [3]: 0.52 µM
- solubility [4]: 2 µM (≈ 0.733 µg/mL)
- hepatocyte CLint [5]: 231 µL/min/1e6 cells
- fraction unbound at 18 h, 1 µM [6]: 0.012

SMILES: COc1cc2[nH]c(-c3ccc(N4CCCCC4)cc3)c(C)c(=O)c2cc1Cl
- IC50 [3]: > 10 µM

SMILES: Cc1c(-c2ccc(N3CC[C@@H]3C(=O)N(C)C)cc2)[nH]c2cc(F)cc(F)c2c1=O
- IC50 [3]: > 10 µM

SMILES: Cc1c(-c2ccc(N3CCCCCC3)cc2)[nH]c2cc(F)cc(F)c2c1=O
- microsomal CLint [1]: > 300 µL/min/mg
- logD [2]: 4.8
- IC50 [3]: 0.49 µM
- solubility [4]: < 0.1 µM
- hepatocyte CLint [5]: 243 µL/min/1e6 cells
- fraction unbound at 18 h, 1 µM [6]: 0.006

SMILES: Cc1c(-c2ccc(N3CCN(C)CC3)cc2)[nH]c2cc(F)cc(F)c2c1=O
- IC50 [3]: > 10 µM

SMILES: O=c1c(Br)c(-c2ccc(N3CCCCC3)cc2)[nH]c2ccccc12
- IC50 [3]: 0.6 µM
